Laboratory results: patent US20260325561A1, “4'-SUBSTITUTED NUCLEOSIDES AND NUCLEOTIDES AS ANTIVIRAL AGENTS” (THE SCRIPPS RESEARCH INSTITUTE, priority 2023, published 2026)

Legend:
ZIKV = test: microbe, parasite or virus in culture; format: cell-based, ZIKV MR766; conditions: Zika virus, HepG2, 24 h, read-out: ZIKV / HepG2 EC50
in vitro [1] = conditions: human, hepg2 cells
HRV 16 = test: microbe, parasite or virus in culture; format: cell-based, Human Rhinovirus 16 strain 11757; conditions: Rhinovirus A, H1-HeLa, 48 h, read-out: HRV / H1 HeLa A16 EC50
SARS-CoV-2 = test: microbe, parasite or virus in culture; format: cell-based, SARS-CoV-2 strain USA-WA1/2020; conditions: Severe acute respiratory syndrome coronavirus 2, HeLa-ACE2, 24 h, read-out: SARS-CoV-2 / HeLa-ACE2 EC50
HCMV = test: HCMV/HFF antiviral assay; format: cell-based; conditions: Human betaherpesvirus 5, HFF
in vitro [2] = conditions: human, hct-8 cells
YFV = test: microbe, parasite or virus in culture; format: cell-based, YFV strain 17D; conditions: Yellow fever virus, HepG2, 24 h, read-out: YFV / HepG2 EC50
in vitro [3] = conditions: human, mrc5 cells
RSV A2 = test: microbe, parasite or virus in culture; format: cell-based; conditions: human respiratory syncytial virus, HEp-2, 72 h, read-out: RSV A2 / Hep2 EC50
HCoV-OC43 = test: microbe, parasite or virus in culture; format: cell-based, Human Coronavirus; conditions: Betacoronavirus 1, OC43, HCT-8, 48 h, read-out: HCoV-OC43/HCT-8 EC50
HCoV-229E = test: microbe, parasite or virus in culture; format: cell-based; conditions: Human coronavirus 229E, MRC5, 120 h, read-out: HCoV-229E/MRC5 EC50
Cytotoxicity, HFF = format: cell-based; conditions: human, hff cells; read-out: HCMV/HFF CC50
in vitro [4] = conditions: human, hela-ace2 cells
in vitro [5] = conditions: human, h1 hela cells
DENV-2 = test: microbe, parasite or virus in culture; format: cell-based, DENV-2 16681; conditions: Dengue virus, DENV2, HepG2, 24 h, read-out: DENV-2 / HepG2 EC50
HRV 14 = test: microbe, parasite or virus in culture; format: cell-based, Human Rhinovirus 14 strain 1059; conditions: Rhinovirus B, H1-HeLa, 48 h, read-out: HRV / H1 HeLa B 14 EC50
in vitro [6] = conditions: human, hep2 cells
CHIKV = test: microbe, parasite or virus in culture; format: cell-based, CHIKV strain 181/25; conditions: Chikungunya virus, HepG2, 24 h, read-out: CHIKV / HepG2 EC50
dengue [7] = conditions: cited from earlier work
dengue [8] = conditions: cited from earlier work; remark: listed apart in the source
[9] = test system: dengue 2′-0-methyltransferase NS5 domain; conditions: role: inhibitor; cited from earlier work
dengue [10] = conditions: cited from earlier work; remark: listed apart in the source
RNA virus infections = conditions: cited from earlier work
[11] = mouse or rhesus monkey model; cited from earlier work

| SMILES | EC50 (ZIKV) [µM] | CC50 at 72 h (in vitro [1]) [µM] | EC50 (HRV 16) [µM] | EC50 (SARS-CoV-2) [µM] | EC50 (HCMV) [µM] | CC50 (in vitro [2]) [µM] | EC50 (YFV) [µM] | CC50 (in vitro [3]) [µM] | EC50 (RSV A2) [µM] | EC50 (HCoV-OC43) [µM] | EC50 (HCoV-229E) [µM] | CC50 (Cytotoxicity, HFF) [µM] | CC50 at 24 h (in vitro [4]) [µM] | CC50 (in vitro [5]) [µM] | EC50 (DENV-2) [µM] | EC50 (HRV 14) [µM] | CC50 (in vitro [6]) [µM] | EC50 (CHIKV) [µM] | further results |
| --- | --- | --- | --- | --- | --- | --- | --- | --- | --- | --- | --- | --- | --- | --- | --- | --- | --- | --- | --- |
| OC[C@@]1(F)O[C@@H](n2cc(Br)c3cncnc32)[C@H](O)[C@@H]1O [Example 25, (2S,3S,4R,5R)-5-(5-bromo-7H-pyrrolo[2,3-d]pyrimidin-7-yl)-2-fluoro-2-(hydroxymethyl)tetrahydrofuran-3,4-diol] | < 0.1 | < 1 | > 10 | 0.1 to 1 | 1 to 10 | < 1 | < 0.1 | > 99 | 0.1 to 1 | 0.1 to 1 | > 10 | > 99 | < 1 | 1 to 10 | < 0.1 | > 10 | 10 to 99 |  |  |
| NC(=O)c1cn([C@@H]2O[C@](F)(CO)[C@@H](O)[C@H]2O)c2ncncc12 [Example 24, 7-((2R,3R,4S,5S)-5-fluoro-3,4-dihydroxy-5-(hydroxymethyl)tetrahydrofuran-2-yl)-7H-pyrrolo[2,3-d]pyrimidine-5-carboxamide] | 0.1 to 1 | 1 to 10 | > 10 | 0.1 to 1 | > 10 | 10 to 99 | 0.1 to 1 | > 99 | 0.1 to 1 | 0.1 to 1 | > 10 | 10 to 99 | 1 to 10 | 10 to 99 | < 0.1 | 1 to 10 | 10 to 99 |  |  |
| OC[C@@]1(F)O[C@@H](n2ccc3c(F)ncnc32)[C@H](O)[C@@H]1O [Example 13, (2S,3S,4R,5R)-2-fluoro-5-(4-fluoro-7H-pyrrolo[2,3-d]pyrimidin-7-yl)-2-(hydroxymethyl)tetrahydrofuran-3,4-diol] |  | 1 to 10 | 0.1 to 1 | 0.1 to 1 | > 10 | 10 to 99 |  | > 99 | 0.1 to 1 | 1 to 10 | > 10 | 10 to 99 | 10 to 99 | 10 to 99 | < 0.1 | 1 to 10 | 10 to 99 | 0.1 to 1 |  |
| OC[C@@]1(F)O[C@@H](n2ccc3c(Cl)ncnc32)[C@H](O)[C@@H]1O [Example 4, (2S,3S,4R,5R)-5-(4-chloro-7H-pyrrolo[2,3-d]pyrimidin-7-yl)-2-fluoro-2-(hydroxymethyl)tetrahydrofuran-3,4-diol] | 0.1 to 1 | 10 to 99 | 0.1 to 1 | 1 to 10 | > 10 | 10 to 99 | < 0.1 | > 99 | 0.1 to 1 | 0.1 to 1 | > 10 | 10 to 99 | 10 to 99 | 10 to 99 | < 0.1 | 0.1 to 1 | 10 to 99 | 0.1 to 1 |  |
| O=c1[nH]cnc2c1c(F)cn2[C@@H]1O[C@](F)(CO)[C@@H](O)[C@H]1O [Example 21, 5-fluoro-7-((2R,3R,4S,5S)-5-fluoro-3,4-dihydroxy-5-(hydroxymethyl)tetrahydrofuran-2-yl)-3,7-dihydro-4H-pyrrolo[2,3-d]pyrimidin-4-one] | > 10 | > 99 | > 10 | > 10 |  | > 99 | > 10 | > 99 | > 10 | > 10 | > 10 |  | > 99 | > 99 | > 10 | > 10 | > 99 |  |  |
| NC(=O)c1ncn([C@@H]2O[C@H](CO)[C@@H](O)[C@H]2O)n1 [Ribavirin] |  |  |  |  |  |  |  |  |  |  |  |  |  |  |  |  |  |  | activity against dengue in tissue culture (dengue [7]): works against dengue in tissue culture; protection against dengue, mouse model (dengue [8]): did not show protection; inhibition of dengue 2′-0-methyltransferase NS5 domain [9]: inhibiting; protection against dengue, rhesus monkey model (dengue [10]): did not show protection; effect against a range of RNA virus infections (RNA virus infections): effective; adverse effects induced [11]: induced anemia and thrombocytosis |
